This is an account of results in patent US20260092070A1, “INHIBITORS OF CANINE JANUS KINASE AND USES THEREOF” (ANIMOL DISCOVERY, INC., priority 2023, published 2026).

As usually defined, the IC50 is the concentration at which inhibition is half-maximal.

Where two headings read alike, the source gives them in different places. Where only a bound is given, the exact number is not on record here.

The target of experiment [1] is T1, Human JAK-3 (Homo sapiens, UniProt P52333).
T1 construct: purchased Eurofins Discovery (KinaseProfiler / IC50Profiler service)
T1 sequence (P52333 1-1124): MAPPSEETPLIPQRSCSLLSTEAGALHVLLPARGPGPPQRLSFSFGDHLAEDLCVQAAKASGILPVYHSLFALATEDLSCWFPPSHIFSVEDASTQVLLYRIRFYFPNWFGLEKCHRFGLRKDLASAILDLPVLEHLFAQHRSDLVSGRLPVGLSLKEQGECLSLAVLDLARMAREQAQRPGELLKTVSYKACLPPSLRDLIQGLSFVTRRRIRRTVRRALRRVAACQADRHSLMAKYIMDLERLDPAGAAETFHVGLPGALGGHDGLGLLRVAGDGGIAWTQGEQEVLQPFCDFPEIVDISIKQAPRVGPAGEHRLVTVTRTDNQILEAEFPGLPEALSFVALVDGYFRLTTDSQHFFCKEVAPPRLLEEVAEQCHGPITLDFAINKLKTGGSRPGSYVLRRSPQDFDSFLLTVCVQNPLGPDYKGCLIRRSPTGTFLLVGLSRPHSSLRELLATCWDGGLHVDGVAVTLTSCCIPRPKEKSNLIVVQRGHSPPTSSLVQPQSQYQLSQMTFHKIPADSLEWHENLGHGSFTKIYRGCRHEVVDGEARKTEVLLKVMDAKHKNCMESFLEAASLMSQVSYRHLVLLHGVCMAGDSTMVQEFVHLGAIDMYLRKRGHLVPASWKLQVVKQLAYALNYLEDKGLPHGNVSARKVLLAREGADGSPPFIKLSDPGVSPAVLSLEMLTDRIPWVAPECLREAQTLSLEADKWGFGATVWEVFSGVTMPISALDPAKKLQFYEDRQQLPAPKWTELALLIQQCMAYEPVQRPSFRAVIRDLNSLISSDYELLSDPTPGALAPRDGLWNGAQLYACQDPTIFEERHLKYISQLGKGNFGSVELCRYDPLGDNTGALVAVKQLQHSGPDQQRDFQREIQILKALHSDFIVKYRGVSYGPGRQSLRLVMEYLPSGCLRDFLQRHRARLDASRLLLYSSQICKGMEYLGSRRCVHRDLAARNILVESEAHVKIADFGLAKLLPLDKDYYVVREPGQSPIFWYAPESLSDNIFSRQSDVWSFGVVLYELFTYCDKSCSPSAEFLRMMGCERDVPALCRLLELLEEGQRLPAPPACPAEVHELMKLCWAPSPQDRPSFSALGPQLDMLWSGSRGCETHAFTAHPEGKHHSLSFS
The experiment in a line: JAK enzymatic assay (Eurofins KinaseProfiler/IC50Profiler, radiometric), JAK-3. The class given is biochemical. The note with it: human JAK-3 enzyme, 9 concentrations; read-out: JAK3 affinity (IC50) category.
Procedure: (§1) All enzyme assays were conducted according to Eurofins Discovery's KinaseProfiler™ and IC50Profiler™ services.
(SEQ ID NO: 3) peptide substrate, 10 mM magnesium acetate and [gamma-33P]-ATP (specific activity and concentration as required). The reaction was initiated by the addition of the Mg/ATP mix. After incubation for 40 minutes at room temperature, the reaction was stopped by the addition of phosphoric acid to a concentration of 0.5%. An aliquot of the reaction was then spotted onto a filter and washed four times for 4 minutes in 0.425% phosphoric acid and once with methanol prior to drying and scintillation counting.
(§2) Data was then imported into an internal application where each data point was expressed as % inhibition based on uninhibited and no enzyme controls.

Experiment [2] has as its target T2, Human TYK-2 (Homo sapiens, UniProt P29597).
T2 construct: purchased Eurofins Discovery (KinaseProfiler / IC50Profiler service)
Kind of experiment: JAK enzymatic assay (Eurofins KinaseProfiler/IC50Profiler, radiometric), TYK-2. The class given is biochemical. The note with it: human TYK-2 enzyme, 9 concentrations; read-out: TYK2 affinity (IC50) category. On the procedure:
Human TYK-2 (Uniprot ID: P29597) was incubated with 8 mM MOPS pH 7.0, 0.2 mM EDTA, 250 μM […]

Experiment [3] deals with Human JAK-2 (Homo sapiens, UniProt O60674). Kind of experiment: JAK enzymatic assay (Eurofins KinaseProfiler/IC50Profiler, radiometric), JAK-2. It is filed as biochemical. The settings on record: human JAK-2 enzyme, 9 concentrations; read-out: JAK2 affinity (IC50) category.
Procedure: as §1
(SEQ ID NO: 2) peptide substrate, 10 mM magnesium acetate and [gamma-33P]-ATP (specific activity and concentration as required). The reaction was initiated by the addition of the Mg/ATP mix. After incubation for 40 minutes at room temperature, the reaction was stopped by the addition of phosphoric acid to a concentration of 0.5%. An aliquot of the reaction was then spotted onto a filter and washed four times for 4 minutes in 0.425% phosphoric acid and once with methanol prior to drying and scintillation counting.
as §2
Experiment [4] concerns the target T3, JAK-1 (Homo sapiens, UniProt P23458). The experiment in a line: JAK enzymatic assay (Eurofins KinaseProfiler/IC50Profiler, radiometric), JAK-1. The settings on record: for JAK1/JAK2 selectivity: selectivity IC50 ratio for JAK1 versus JAK2, human enzymes.
Target sequence in this assay (P23458 whole entry): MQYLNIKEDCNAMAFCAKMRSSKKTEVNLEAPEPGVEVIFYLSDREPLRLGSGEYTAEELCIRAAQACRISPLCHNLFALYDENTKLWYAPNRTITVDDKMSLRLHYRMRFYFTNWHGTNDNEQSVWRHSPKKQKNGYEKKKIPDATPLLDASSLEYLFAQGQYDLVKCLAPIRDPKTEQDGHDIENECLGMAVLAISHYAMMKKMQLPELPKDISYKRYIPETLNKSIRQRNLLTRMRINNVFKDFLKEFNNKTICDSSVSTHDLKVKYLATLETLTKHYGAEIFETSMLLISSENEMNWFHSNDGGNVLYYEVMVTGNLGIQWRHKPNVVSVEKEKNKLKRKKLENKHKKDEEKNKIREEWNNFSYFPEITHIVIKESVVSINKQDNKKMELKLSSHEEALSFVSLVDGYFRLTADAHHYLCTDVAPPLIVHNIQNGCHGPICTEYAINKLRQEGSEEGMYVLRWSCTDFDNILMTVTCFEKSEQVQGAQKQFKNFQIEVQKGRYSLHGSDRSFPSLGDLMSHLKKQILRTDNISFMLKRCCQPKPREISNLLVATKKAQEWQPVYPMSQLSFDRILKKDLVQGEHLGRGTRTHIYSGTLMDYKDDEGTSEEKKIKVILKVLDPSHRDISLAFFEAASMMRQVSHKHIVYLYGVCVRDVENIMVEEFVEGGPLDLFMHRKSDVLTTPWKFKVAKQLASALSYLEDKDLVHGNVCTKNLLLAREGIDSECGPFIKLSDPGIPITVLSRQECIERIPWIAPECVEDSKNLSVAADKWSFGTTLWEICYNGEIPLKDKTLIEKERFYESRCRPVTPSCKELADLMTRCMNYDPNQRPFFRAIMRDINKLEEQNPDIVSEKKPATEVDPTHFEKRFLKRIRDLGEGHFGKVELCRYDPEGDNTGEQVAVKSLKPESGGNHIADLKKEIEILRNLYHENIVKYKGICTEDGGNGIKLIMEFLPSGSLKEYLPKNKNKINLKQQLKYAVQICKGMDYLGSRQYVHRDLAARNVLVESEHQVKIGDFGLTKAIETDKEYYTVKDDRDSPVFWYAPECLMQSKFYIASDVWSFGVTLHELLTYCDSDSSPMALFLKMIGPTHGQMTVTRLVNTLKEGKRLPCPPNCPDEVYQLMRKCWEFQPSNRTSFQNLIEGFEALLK
Procedure: as §1
(SEQ ID NO.: 1) peptide substrate, 10 mM magnesium acetate and [gamma-33P]-ATP (specific activity and concentration as required). The reaction was initiated by the addition of the Mg/ATP mix. After incubation for 40 minutes at room temperature, the reaction was stopped by the addition of phosphoric acid to a concentration of 0.5%. An aliquot of the reaction was then spotted onto a filter and washed four times for 4 minutes in 0.425% phosphoric acid and once with methanol prior to drying and scintillation counting. A known inhibitor, Staurosporine, was used as a positive control for the assay.
Data was then imported into an internal application where each data point was expressed as % inhibition based on uninhibited and no enzyme controls. […] Inhibition values for the JAK enzymes (IC50 values) for each compound were stratified into four groups.
Experiment [5] deals with cJAK-1. Kind of experiment: Selectivity of oclacitinib among canine JAK subtypes. The class given is biochemical.
Experiment [6] deals with T3, JAK-1. The note with it: Gonzales et al., 2014; cited from earlier work.
Target sequence in this assay (P23458 whole entry, species assumed): as the sequence (P23458 whole entry) above
For experiment [7], the system named is JAK1-dependent cytokines (IL-2, IL-4, IL-6, IL-13, IL-31). The settings on record: IL-2, IL-4, IL-6, IL-13 and IL-31; Gonzales et al., 2014; read-out: IC50 for inhibiting the function of JAK1-dependent cytokines; cited from earlier work.

T2 sequence (P29597 whole entry): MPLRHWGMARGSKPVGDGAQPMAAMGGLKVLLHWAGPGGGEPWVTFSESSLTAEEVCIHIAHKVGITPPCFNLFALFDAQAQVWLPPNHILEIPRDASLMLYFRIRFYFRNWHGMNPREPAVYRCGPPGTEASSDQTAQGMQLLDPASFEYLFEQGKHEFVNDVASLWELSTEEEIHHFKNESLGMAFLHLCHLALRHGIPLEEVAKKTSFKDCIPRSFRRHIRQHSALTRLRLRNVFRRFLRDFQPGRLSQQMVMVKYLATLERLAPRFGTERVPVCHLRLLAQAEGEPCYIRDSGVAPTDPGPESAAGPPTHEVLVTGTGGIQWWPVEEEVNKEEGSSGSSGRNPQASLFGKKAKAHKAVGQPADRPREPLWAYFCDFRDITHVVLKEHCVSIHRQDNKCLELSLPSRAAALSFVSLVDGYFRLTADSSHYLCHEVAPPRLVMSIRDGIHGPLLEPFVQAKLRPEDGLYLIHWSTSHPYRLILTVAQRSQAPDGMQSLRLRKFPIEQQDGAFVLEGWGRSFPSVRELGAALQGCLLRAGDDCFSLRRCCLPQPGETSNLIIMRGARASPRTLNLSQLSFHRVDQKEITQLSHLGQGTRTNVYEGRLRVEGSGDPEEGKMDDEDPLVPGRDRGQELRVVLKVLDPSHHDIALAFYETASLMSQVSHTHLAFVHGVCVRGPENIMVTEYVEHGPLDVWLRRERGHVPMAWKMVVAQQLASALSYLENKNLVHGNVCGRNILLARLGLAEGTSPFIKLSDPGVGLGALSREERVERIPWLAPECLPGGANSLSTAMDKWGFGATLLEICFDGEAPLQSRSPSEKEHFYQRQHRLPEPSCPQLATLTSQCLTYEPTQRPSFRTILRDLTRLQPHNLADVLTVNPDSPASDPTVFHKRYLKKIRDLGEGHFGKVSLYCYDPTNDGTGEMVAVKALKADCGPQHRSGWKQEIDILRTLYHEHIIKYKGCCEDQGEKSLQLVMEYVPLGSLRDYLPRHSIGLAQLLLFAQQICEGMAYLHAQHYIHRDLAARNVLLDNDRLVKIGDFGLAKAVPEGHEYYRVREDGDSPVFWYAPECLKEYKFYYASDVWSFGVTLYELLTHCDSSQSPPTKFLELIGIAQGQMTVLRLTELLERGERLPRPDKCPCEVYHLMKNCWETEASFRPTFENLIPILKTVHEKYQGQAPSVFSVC
Sequence of Human JAK-2 (O60674 whole entry): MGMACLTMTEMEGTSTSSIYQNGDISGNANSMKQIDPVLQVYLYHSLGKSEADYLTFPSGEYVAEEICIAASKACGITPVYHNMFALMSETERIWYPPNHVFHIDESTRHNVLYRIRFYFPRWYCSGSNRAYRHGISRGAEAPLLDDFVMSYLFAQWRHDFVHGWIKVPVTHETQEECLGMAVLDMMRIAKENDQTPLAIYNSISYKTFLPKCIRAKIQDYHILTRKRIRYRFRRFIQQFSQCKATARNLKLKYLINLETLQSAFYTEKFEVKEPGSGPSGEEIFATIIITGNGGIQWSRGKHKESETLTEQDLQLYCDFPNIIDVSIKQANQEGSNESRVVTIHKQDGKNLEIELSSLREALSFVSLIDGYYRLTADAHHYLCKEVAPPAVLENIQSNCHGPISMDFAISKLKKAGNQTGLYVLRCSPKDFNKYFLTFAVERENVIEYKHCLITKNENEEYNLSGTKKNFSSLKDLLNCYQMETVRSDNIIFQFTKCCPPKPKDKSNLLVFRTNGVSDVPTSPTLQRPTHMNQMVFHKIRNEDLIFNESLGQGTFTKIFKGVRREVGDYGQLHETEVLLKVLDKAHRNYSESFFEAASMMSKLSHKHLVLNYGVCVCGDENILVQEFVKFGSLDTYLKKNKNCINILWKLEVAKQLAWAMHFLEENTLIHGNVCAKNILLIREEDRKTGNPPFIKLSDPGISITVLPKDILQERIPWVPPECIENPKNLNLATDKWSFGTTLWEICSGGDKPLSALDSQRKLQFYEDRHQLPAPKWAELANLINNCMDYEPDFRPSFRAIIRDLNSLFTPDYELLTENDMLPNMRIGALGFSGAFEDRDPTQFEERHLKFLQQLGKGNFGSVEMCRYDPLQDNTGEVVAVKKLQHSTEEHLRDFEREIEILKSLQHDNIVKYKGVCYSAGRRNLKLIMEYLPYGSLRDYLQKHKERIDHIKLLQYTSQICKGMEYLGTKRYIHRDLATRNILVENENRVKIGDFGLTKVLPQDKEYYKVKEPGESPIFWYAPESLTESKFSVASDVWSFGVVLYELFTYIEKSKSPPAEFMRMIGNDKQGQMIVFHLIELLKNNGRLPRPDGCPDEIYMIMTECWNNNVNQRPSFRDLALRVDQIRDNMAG

For the molecule `COCCN(C)S(=O)(=O)c1ccc(NC(=O)CN2CCN(c3ncnc4[nH]ccc34)CC2)cc1` [Compound 10, 2-(4-(7H-pyrrolo[2,3-d]pyrimidin-4-yl)piperazin-1-yl)-N-(4-(N-(2-methoxyethyl)-N-methylsulfamoyl)phenyl)acetamide], the IC50 in experiment [1] is > 1 µM; in experiment [2], > 1 µM; in experiment [3], > 1 µM; in experiment [4], 0.25 to 0.5 µM. Further, the JAK1/JAK2 selectivity in experiment [4] is on record as 15.

Regarding `CCCCNS(=O)(=O)c1ccc(NC(=O)CN2CCN(c3ncnc4[nH]ccc34)CC2)cc1` [Compound 11, 2-(4-(7H-pyrrolo[2,3-d]pyrimidin-4-yl)piperazin-1-yl)-N-(4-(N-butylsulfamoyl)phenyl)acetamide], the IC50 was 0.5 to 1 µM in experiment [1], > 1 µM in experiment [2], > 1 µM in experiment [3] and < 0.25 µM in experiment [4]. For the same molecule, in experiment [4], the JAK1/JAK2 selectivity came to 9.

Turning to `CCCNS(=O)(=O)c1ccc(NC(=O)CN2CCN(c3ncnc4[nH]ccc34)CC2)cc1` [Compound 12, 2-(4-(7H-pyrrolo[2,3-d]pyrimidin-4-yl)piperazin-1-yl)-N-(4-(N-propylsulfamoyl)phenyl)acetamide], the IC50 in experiment [1] is 0.5 to 1 µM; in experiment [2], > 1 µM; in experiment [3], 0.5 to 1 µM; in experiment [4], < 0.25 µM. Also, in experiment [4], the JAK1/JAK2 selectivity was 4.

`CCNS(=O)(=O)c1ccc(NC(=O)CN2CCN(c3ncnc4[nH]ccc34)CC2)cc1` [Compound 13, 2-(4-(7H-pyrrolo[2,3-d]pyrimidin-4-yl)piperazin-1-yl)-N-(4-(N-ethylsulfamoyl)phenyl)acetamide]: the IC50 in experiment [1] was > 1 µM; in experiment [2], > 1 µM; in experiment [3] it was > 1 µM; in experiment [4], < 0.25 µM. Moreover, the JAK1/JAK2 selectivity in experiment [4] was 13.

On to `CNS(=O)(=O)c1ccc(N(C)C(=O)CN2CCN(c3ncnc4[nH]ccc34)CC2)cc1` [Compound 14, 2-(4-(7H-pyrrolo[2,3-d]pyrimidin-4-yl)piperazin-1-yl)-N-methyl-N-(4-(N-methylsulfamoyl)phenyl)acetamide], for which the IC50 is > 1 µM in experiment [1], > 1 µM in experiment [2], > 1 µM in experiment [3] and 0.25 to 0.5 µM in experiment [4]. The JAK1/JAK2 selectivity in experiment [4] is given as 17.

Take `CC(C)NS(=O)(=O)c1ccc(NC(=O)C(C)N2CCN(c3ncnc4[nH]ccc34)CC2)cc1` (stereo not shown) [Compound 17, 2-(4-(7H-pyrrolo[2,3-d]pyrimidin-4-yl)piperazin-1-yl)-N-(4-(N-isopropylsulfamoyl)phenyl)propenamide]: the IC50 in experiment [1] was > 1 µM; in experiment [2], > 1 µM; in experiment [3] it was > 1 µM; in experiment [4], 0.25 to 0.5 µM. The JAK1/JAK2 selectivity in experiment [4] is on record as 7.

`CC(C)NS(=O)(=O)c1ccc(NC(=O)[C@@H](C)N2CCN(c3ncnc4[nH]ccc34)CC2)cc1` [Compound 18, (R)-2-(4-(7H-pyrrolo[2,3-d]pyrimidin-4-yl)piperazin-1-yl)-N-(4-(N-isopropylsulfamoyl)phenyl)propanamide]: the IC50 in experiment [1] was 0.5 to 1 µM; in experiment [2], > 1 µM; in experiment [3], < 0.25 µM; in experiment [4], 0.25 to 0.5 µM. Moreover, in experiment [4], the JAK1/JAK2 selectivity is 4.

On to `CC(C(=O)Nc1ccc(S(=O)(=O)N2CCCCC2)cc1)N1CCN(c2ncnc3[nH]ccc23)CC1` (stereo not shown) [Compound 20, 2-(4-(7H-pyrrolo[2,3-d]pyrimidin-4-yl)piperazin-1-yl)-N-(4-(piperidin-1-ylsulfonyl)phenyl)propenamide], for which the IC50 in experiment [1] is > 1 µM; in experiment [2] it was 0.5 to 1 µM; in experiment [3], > 1 µM; in experiment [4], 0.5 to 1 µM. Moreover, the JAK1/JAK2 selectivity in experiment [4] is given as 2.

As to `CNS(=O)(=O)C[C@H]1CC[C@H](N(C)c2ncnc3[nH]ccc23)CC1.O=C(O)/C=C\C(=O)O` [Oclacitinib, N-methyl[trans-4-(methyl-7H-pyrrolo[2,3-d]pyrimidin-4-ylamino)cyclohexyl]methanesulfonamide (2Z)-2-butenedioate], the “selectivity toward cJAK-2, cJAK-3, and cJAK-4 relative to cJAK-1” value in experiment [5] is given as “relatively low”. The IC50 is 0.01 µM in experiment [6] and 0.036 to 0.249 µM in experiment [7].
